# Experimental data from PubChem BioAssay (NCI).
#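 Cells were grown in 96-well plates and exposed to each compound for 48 hours at five concentrations; endpoints were interpolated linearly between bracketing concentrations, or set to the highest concentration if not reached. GI50 is the concentration that inhibits growth by half. Definition used: TGI = concentration required for complete inhibition of growth.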
# Tests used:
# Experiment in all cases: DTP human tumour cell line panel, 48 h
# 786-0 renal = system: 786-0 renal
# A498 renal = system: A498 renal
# A549 NSCLC = system: A549 NSCLC
# ACHN renal = system: ACHN renal
# CAKI-1 renal = system: CAKI-1 renal
# CCRF-CEM leukemia = system: CCRF-CEM leukemia
# COLO 205 colon = system: COLO 205 colon
# DU-145 prostate = system: DU-145 prostate
# EKVX NSCLC = system: EKVX NSCLC
# HL-60(TB) leukemia = system: HL-60(TB) leukemia
# KM12 colon = system: KM12 colon
# MDA-MB-435 = system: MDA-MB-435
# MOLT-4 leukemia = system: MOLT-4 leukemia
# NCI-H226 lung = system: NCI-H226 lung
# OVCAR-3 ovarian = system: OVCAR-3 ovarian
# OVCAR-4 ovarian = system: OVCAR-4 ovarian
# OVCAR-5 ovarian = system: OVCAR-5 ovarian
# RPMI-8226 leukemia = system: RPMI-8226 leukemia
# SK-MEL-28 melanoma = system: SK-MEL-28 melanoma
# SK-OV-3 ovarian = system: SK-OV-3 ovarian
# SN12C renal = system: SN12C renal
# SNB-19 CNS = system: SNB-19 CNS
# SW-620 colon = system: SW-620 colon
# TK-10 renal = system: TK-10 renal
# BT-549 breast = system: BT-549 breast
# HCC-2998 colon = system: HCC-2998 colon
# HCT-116 colon = system: HCT-116 colon
# HCT-15 colon = system: HCT-15 colon
# HOP-62 NSCLC = system: HOP-62 NSCLC
# HS 578T breast = system: HS 578T breast
# IGROV1 ovarian = system: IGROV1 ovarian
# LOX IMVI melanoma = system: LOX IMVI melanoma
# M14 melanoma = system: M14 melanoma
# MCF7 breast = system: MCF7 breast
# NCI-H23 lung = system: NCI-H23 lung
# NCI-H522 lung = system: NCI-H522 lung
# NCI/ADR-RES ovarian = system: NCI/ADR-RES ovarian
# OVCAR-8 ovarian = system: OVCAR-8 ovarian
# RXF 393 renal = system: RXF 393 renal
# SF-268 CNS = system: SF-268 CNS
# SF-295 CNS = system: SF-295 CNS
# SF-539 CNS = system: SF-539 CNS
# SK-MEL-2 melanoma = system: SK-MEL-2 melanoma
# SK-MEL-5 melanoma = system: SK-MEL-5 melanoma
# T-47D breast = system: T-47D breast
# U251 CNS = system: U251 CNS
# UACC-257 melanoma = system: UACC-257 melanoma
# UACC-62 melanoma = system: UACC-62 melanoma
# UO-31 renal = system: UO-31 renal
# HOP-92 NSCLC = system: HOP-92 NSCLC
# K-562 leukemia = system: K-562 leukemia
# MDA-MB-231 breast = system: MDA-MB-231 breast
# NCI-H460 lung = system: NCI-H460 lung
# PC-3 prostate = system: PC-3 prostate
# SNB-75 CNS = system: SNB-75 CNS
structure (smiles),measurement,setting,value
CN(C)c1ccc(/C=c2/c3ccccc3n3c2cc(C24CC5CC(CC(C5)C2)C4)[n+]3C)cc1,TGI,786-0 renal,658 nM
same,TGI,A498 renal,1.08 µM
same,TGI,A549 NSCLC,1.09 µM
same,TGI,ACHN renal,1230 nM
same,TGI,CAKI-1 renal,1040 nM
same,TGI,CCRF-CEM leukemia,> 100 µM
same,TGI,COLO 205 colon,0.32 µM
same,TGI,DU-145 prostate,1840 nM
same,TGI,EKVX NSCLC,1.58 µM
same,TGI,HL-60(TB) leukemia,0.666 µM
same,TGI,KM12 colon,0.405 µM
same,TGI,MDA-MB-435,0.694 µM
same,TGI,MOLT-4 leukemia,> 100 µM
same,TGI,NCI-H226 lung,1.49 µM
same,TGI,OVCAR-3 ovarian,1600 nM
same,TGI,OVCAR-4 ovarian,0.731 µM
same,TGI,OVCAR-5 ovarian,1.61 µM
same,TGI,RPMI-8226 leukemia,> 100 µM
same,TGI,SK-MEL-28 melanoma,2.16 µM
same,TGI,SK-OV-3 ovarian,1.48 µM
same,TGI,SN12C renal,1.12 µM
same,TGI,SNB-19 CNS,1.36 µM
same,TGI,SW-620 colon,1.44 µM
same,TGI,TK-10 renal,1.65 µM
Cc1cc(N2CCCC2)nc(NC2CCCC(Nc3ccnc4cc(Cl)ccc34)C2)n1 (stereo unspecified),GI50,786-0 renal,1.45 µM
same,TGI,786-0 renal,2870 nM
same,GI50,A498 renal,1.91 µM
same,TGI,A498 renal,3.48 µM
same,GI50,ACHN renal,1270 nM
same,TGI,ACHN renal,2790 nM
same,GI50,BT-549 breast,1.8 µM
same,TGI,BT-549 breast,3.35 µM
same,GI50,CCRF-CEM leukemia,408 nM
same,TGI,CCRF-CEM leukemia,3.37 µM
same,GI50,COLO 205 colon,1460 nM
same,TGI,COLO 205 colon,3.35 µM
same,GI50,DU-145 prostate,1.24 µM
same,TGI,DU-145 prostate,2770 nM
same,GI50,EKVX NSCLC,1.86 µM
same,TGI,EKVX NSCLC,5.02 µM
same,GI50,HCC-2998 colon,1120 nM
same,TGI,HCC-2998 colon,2680 nM
same,GI50,HCT-116 colon,442 nM
same,TGI,HCT-116 colon,1680 nM
same,GI50,HCT-15 colon,1020 nM
same,TGI,HCT-15 colon,2440 nM
same,GI50,HOP-62 NSCLC,1.32 µM
same,TGI,HOP-62 NSCLC,2.95 µM
same,GI50,HS 578T breast,2 µM
same,TGI,HS 578T breast,4.72 µM
same,GI50,IGROV1 ovarian,967 nM
same,TGI,IGROV1 ovarian,3.2 µM
same,GI50,KM12 colon,1.5 µM
same,TGI,KM12 colon,3.89 µM
same,GI50,LOX IMVI melanoma,681 nM
same,TGI,LOX IMVI melanoma,2.1 µM
same,GI50,M14 melanoma,1.14 µM
same,TGI,M14 melanoma,2.51 µM
same,GI50,MCF7 breast,563 nM
same,TGI,MCF7 breast,2.63 µM
same,GI50,MDA-MB-435,1.56 µM
same,TGI,MDA-MB-435,3.11 µM
same,GI50,MOLT-4 leukemia,478 nM
same,TGI,MOLT-4 leukemia,3.13 µM
same,GI50,NCI-H226 lung,1.91 µM
same,TGI,NCI-H226 lung,3.92 µM
same,GI50,NCI-H23 lung,1.59 µM
same,TGI,NCI-H23 lung,4.14 µM
same,GI50,NCI-H522 lung,1580 nM
same,TGI,NCI-H522 lung,3.21 µM
same,GI50,NCI/ADR-RES ovarian,1.78 µM
same,TGI,NCI/ADR-RES ovarian,5.69 µM
same,GI50,OVCAR-3 ovarian,1670 nM
same,TGI,OVCAR-3 ovarian,4210 nM
same,GI50,OVCAR-4 ovarian,1.52 µM
same,TGI,OVCAR-4 ovarian,5.27 µM
same,GI50,OVCAR-5 ovarian,1.45 µM
same,TGI,OVCAR-5 ovarian,4.26 µM
same,GI50,OVCAR-8 ovarian,1920 nM
same,TGI,OVCAR-8 ovarian,4.39 µM
same,GI50,RPMI-8226 leukemia,322 nM
same,TGI,RPMI-8226 leukemia,1.4 µM
same,GI50,RXF 393 renal,1330 nM
same,TGI,RXF 393 renal,2.71 µM
same,GI50,SF-268 CNS,1.19 µM
same,TGI,SF-268 CNS,3.46 µM
same,GI50,SF-295 CNS,1.47 µM
same,TGI,SF-295 CNS,2.89 µM
same,GI50,SF-539 CNS,1.26 µM
same,TGI,SF-539 CNS,2.62 µM
same,GI50,SK-MEL-2 melanoma,1.7 µM
same,TGI,SK-MEL-2 melanoma,3.27 µM
same,GI50,SK-MEL-28 melanoma,1.77 µM
same,TGI,SK-MEL-28 melanoma,3.43 µM
same,GI50,SK-MEL-5 melanoma,1.69 µM
same,TGI,SK-MEL-5 melanoma,3.09 µM
same,GI50,SK-OV-3 ovarian,1.86 µM
same,TGI,SK-OV-3 ovarian,3.49 µM
same,GI50,SNB-19 CNS,1.46 µM
same,TGI,SNB-19 CNS,3.44 µM
same,GI50,SW-620 colon,1270 nM
same,TGI,SW-620 colon,3.25 µM
same,GI50,T-47D breast,1710 nM
same,TGI,T-47D breast,4.83 µM
same,GI50,TK-10 renal,2.55 µM
same,TGI,TK-10 renal,4.56 µM
same,GI50,U251 CNS,1480 nM
same,TGI,U251 CNS,2860 nM
same,GI50,UACC-257 melanoma,1990 nM
same,TGI,UACC-257 melanoma,3.76 µM
same,GI50,UACC-62 melanoma,1.92 µM
same,TGI,UACC-62 melanoma,3.57 µM
same,GI50,UO-31 renal,1050 nM
same,TGI,UO-31 renal,2290 nM
O=C([O][Hg][CH2]C1COCC([CH2][Hg][O]C(=O)c2ccccc2)O1)c1ccccc1 (stereo unspecified),GI50,786-0 renal,16.8 µM
same,TGI,786-0 renal,30500 nM
same,GI50,A498 renal,17.1 µM
same,TGI,A498 renal,31.2 µM
same,GI50,A549 NSCLC,12.6 µM
same,TGI,A549 NSCLC,27.2 µM
same,GI50,ACHN renal,1910 nM
same,TGI,ACHN renal,3710 nM
same,GI50,BT-549 breast,17.3 µM
same,TGI,BT-549 breast,31.2 µM
same,GI50,CAKI-1 renal,1610 nM
same,TGI,CAKI-1 renal,3210 nM
same,GI50,CCRF-CEM leukemia,804 nM
same,TGI,CCRF-CEM leukemia,5.08 µM
same,GI50,COLO 205 colon,1880 nM
same,TGI,COLO 205 colon,3.55 µM
same,GI50,DU-145 prostate,15.2 µM
same,TGI,DU-145 prostate,28700 nM
same,GI50,EKVX NSCLC,19.6 µM
same,TGI,EKVX NSCLC,37.4 µM
same,GI50,HCT-116 colon,1560 nM
same,TGI,HCT-116 colon,2930 nM
same,GI50,HL-60(TB) leukemia,3.84 µM
same,TGI,HL-60(TB) leukemia,13.9 µM
same,GI50,HOP-62 NSCLC,15.3 µM
same,TGI,HOP-62 NSCLC,31.1 µM
same,GI50,HOP-92 NSCLC,2250 nM
same,TGI,HOP-92 NSCLC,4.23 µM
same,GI50,HS 578T breast,19.8 µM
same,TGI,HS 578T breast,65.8 µM
same,GI50,IGROV1 ovarian,2100 nM
same,TGI,IGROV1 ovarian,4.17 µM
same,GI50,K-562 leukemia,2610 nM
same,TGI,K-562 leukemia,11.9 µM
same,GI50,KM12 colon,16.6 µM
same,TGI,KM12 colon,31.5 µM
same,GI50,LOX IMVI melanoma,1730 nM
same,TGI,LOX IMVI melanoma,4.2 µM
same,GI50,M14 melanoma,6.01 µM
same,TGI,M14 melanoma,19.9 µM
same,GI50,MCF7 breast,1250 nM
same,TGI,MCF7 breast,14.2 µM
same,GI50,MDA-MB-231 breast,19.4 µM
same,TGI,MDA-MB-231 breast,45.6 µM
same,GI50,MDA-MB-435,14.2 µM
same,TGI,MDA-MB-435,30.9 µM
same,GI50,MOLT-4 leukemia,2960 nM
same,TGI,MOLT-4 leukemia,12.5 µM
same,GI50,NCI-H226 lung,20.8 µM
same,TGI,NCI-H226 lung,41.9 µM
same,GI50,NCI-H23 lung,16.1 µM
same,TGI,NCI-H23 lung,36.8 µM
same,GI50,NCI-H460 lung,20 µM
same,TGI,NCI-H460 lung,42.5 µM
same,GI50,NCI/ADR-RES ovarian,21.1 µM
same,TGI,NCI/ADR-RES ovarian,61.6 µM
same,GI50,OVCAR-3 ovarian,1580 nM
same,TGI,OVCAR-3 ovarian,2930 nM
same,GI50,OVCAR-4 ovarian,14.4 µM
same,TGI,OVCAR-4 ovarian,49.6 µM
same,GI50,OVCAR-5 ovarian,19.2 µM
same,TGI,OVCAR-5 ovarian,35.9 µM
same,GI50,OVCAR-8 ovarian,2030 nM
same,TGI,OVCAR-8 ovarian,4.62 µM
same,GI50,PC-3 prostate,15.9 µM
same,TGI,PC-3 prostate,32.4 µM
same,GI50,RPMI-8226 leukemia,2750 nM
same,TGI,RPMI-8226 leukemia,7.66 µM
same,GI50,RXF 393 renal,1990 nM
same,TGI,RXF 393 renal,3.56 µM
same,GI50,SF-268 CNS,16.6 µM
same,TGI,SF-268 CNS,30.7 µM
same,GI50,SF-295 CNS,17.3 µM
same,TGI,SF-295 CNS,35.7 µM
same,GI50,SF-539 CNS,23.7 µM
same,TGI,SF-539 CNS,51.8 µM
same,GI50,SK-MEL-2 melanoma,13.2 µM
same,TGI,SK-MEL-2 melanoma,29.6 µM
same,GI50,SK-MEL-28 melanoma,6.86 µM
same,TGI,SK-MEL-28 melanoma,19.6 µM
same,GI50,SK-MEL-5 melanoma,11.9 µM
same,TGI,SK-MEL-5 melanoma,24.6 µM
same,GI50,SK-OV-3 ovarian,21.8 µM
same,TGI,SK-OV-3 ovarian,43 µM
same,GI50,SN12C renal,7.68 µM
same,TGI,SN12C renal,32.2 µM
same,GI50,SNB-19 CNS,19.2 µM
same,TGI,SNB-19 CNS,40 µM
same,GI50,SNB-75 CNS,15.6 µM
same,TGI,SNB-75 CNS,29.3 µM
same,GI50,SW-620 colon,1540 nM
same,TGI,SW-620 colon,3.32 µM
same,GI50,TK-10 renal,6.33 µM
same,TGI,TK-10 renal,31.5 µM
same,GI50,U251 CNS,622 nM
same,TGI,U251 CNS,2120 nM
same,GI50,UACC-257 melanoma,1450 nM
same,TGI,UACC-257 melanoma,2.85 µM
same,GI50,UACC-62 melanoma,16.4 µM
same,TGI,UACC-62 melanoma,32.4 µM
same,GI50,UO-31 renal,1820 nM
same,TGI,UO-31 renal,3390 nM
